Consider 32 compounds from patent US20100029643A1 (ASTRAZENECA AB, priority 2006, published 2010).

SMILES strings stand for the structures.

T1 sequence (P21453 whole entry): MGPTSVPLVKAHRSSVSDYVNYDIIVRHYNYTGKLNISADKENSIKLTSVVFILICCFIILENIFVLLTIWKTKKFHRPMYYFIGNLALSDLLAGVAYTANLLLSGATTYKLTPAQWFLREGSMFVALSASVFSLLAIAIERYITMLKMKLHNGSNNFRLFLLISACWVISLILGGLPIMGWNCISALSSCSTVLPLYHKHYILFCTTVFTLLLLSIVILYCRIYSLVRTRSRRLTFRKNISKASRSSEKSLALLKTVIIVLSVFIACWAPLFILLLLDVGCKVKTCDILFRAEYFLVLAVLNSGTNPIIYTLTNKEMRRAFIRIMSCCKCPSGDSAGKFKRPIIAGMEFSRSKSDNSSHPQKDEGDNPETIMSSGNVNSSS

The first assay concerns the target T1, Edg-1/S1P1 receptor (Homo sapiens, UniProt P21453).
T1 construct: expressed in transfected cells; host or cells: human osteogenic sarcoma U2OS cells: Edg-1 Transfluor U2OS WT Clone #37 (assay I), Edg-1 Transfluor U2OS Clone #3 (assay II)
The experiment in a line: In vitro cell based receptor activation assay - Transfluor assay (assay I or II; beta-arrestin GFP relocalization after S1P stimulation). The conditions noted are these: at 1 μM (titrated with 3.50 μM as top concentration). The procedure, abridged: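 U2OS cells overexpressing S1P1 with a beta-arrestin-GFP construct were pre-incubated with compound for 15 min at room temperature, then stimulated with S1P for 45 min at 37 °C. In assay I, final S1P was 375 nM or 750 nM and compound was a 9-point 3-fold series from 100 μM, in 1% DMSO. Cells were fixed and Hoechst-stained, GFP relocalization was imaged, and EC50 values were fitted.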
`CCn1c([C@@H](C)NS(=O)(=O)c2ccc(Cl)cc2)nc2cc(F)c(F)c(F)c21` [Example 91, (R)-4-Chloro-N-[1-(1-ethyl-5,6,7-trifluoro-1H-benzoimidazol-2-yl)-ethyl]-benzenesulfonamide] had an inhibition at 1 µM of 91.8%.

The assay is the same for the next values; noted with them: at 3.50 μM (titrated from top concentration 10 μM).
`CCn1c([C@@H](C)NS(=O)(=O)c2ccc(Cl)cc2)nc2ccc(C)cc21` [Example 89, 4-Chloro-N-[(1R)-1-(1-ethyl-6-methyl-1H-benzimidazol-2-yl)ethyl]benzenesulfonamide] returned an inhibition at 3.5 µM of 90.7%. `CCn1c([C@@H](C)NS(=O)(=O)c2ccc(Cl)cc2)nc2c(F)cccc21` [Example 90, 4-Chloro-N-[(1R)-1-(1-ethyl-4-fluoro-1H-benzimidazol-2-yl)ethyl]benzenesulfonamide] yielded an inhibition at 3.5 µM of 93.4%. The compound `CCn1c([C@@H](C)NS(=O)(=O)c2ccc(Cl)cc2)nc2cc(C(F)(F)F)ccc21` [Example 92, 4-Chloro-N-{(1R)-1-[1-ethyl-5-(trifluoromethyl)-1H-benzimidazol-2-yl]ethyl}benzenesulfonamide] yielded an inhibition at 3.5 µM of 86.1%. With `CCn1c(C(C)NS(=O)(=O)c2ccc(Cl)cc2)nc2c(OC)nccc21` (centres unmarked) [Example 95, 4-chloro-N-[1-(1-ethyl-4-methoxy-1H-imidazo[4,5-c]pyridin-2-yl)ethyl]benzenesulfonamide], at 3.5 µM the inhibition was 47.7%. For `CCn1c([C@@H](C)NS(=O)(=O)c2ccc(Cl)cc2)nc2cnc(C3CC3)cc21` [Example 98, 4-Chloro-N-[(1R)-1-(6-cyclopropyl-1-ethyl-1H-imidazo[4,5-c]pyridin-2-yl)ethyl]benzenesulfonamide], the inhibition at 3.5 µM is 88.2%.

`CCn1c([C@H](C)NS(=O)(=O)c2ccc(Cl)cc2)nc2ccc(C(F)(F)F)cc21` [Example 100, 4-Chloro-N-{(1S)-1-[1-ethyl-6-(trifluoromethyl)-1H-benzimidazol-2-yl]ethyl}benzenesulfonamide] yielded an inhibition at 3.5 µM of 84.6%.

For `CCn1c([C@@H](C)NS(=O)(=O)c2ccc(Cl)cc2)nc2cnccc21` [Example 102, 4-Chloro-N-[(1R)-1-(1-ethyl-1H-imidazo[4,5-c]pyridin-2-yl)ethyl]benzenesulfonamide], at 3.5 µM the inhibition was 93.8%. For the compound `CCn1c([C@@H](C)NS(=O)(=O)c2ccc(C#N)cc2)nc2cnccc21` [Example 103, 4-Cyano-N-[(1R)-1-(1-ethyl-1H-imidazol[4,5-c]pyridin-2-yl)ethyl]benzenesulfonamide], the inhibition at 3.5 µM turned out to be 89.4%.

Consider `CCn1c([C@@H](C)NS(=O)(=O)c2ccc(F)cc2)nc2cnccc21` [Example 104, 4-Fluoro-N-[(1R)-1-(1-ethyl-1H-imidazo[4,5-c]pyridin-2-yl)ethyl]benzenesulfonamide], for which at 3.5 µM the inhibition was 90.3%. Same read-out and setting: to `CCn1c([C@@H](C)NS(=O)(=O)c2ccc(C#N)nc2)nc2ccc(C(F)(F)F)cc21` [Example 105, (R)-6-Cyano-N-(1-(1-ethyl-6-(trifluoromethyl)-1H-benzo[d]imidazol-2-yl)ethyl) pyridine-3-sulfonamide] belongs 93.1%; to `CCn1c([C@@H](C)NS(=O)(=O)c2ccc(C(N)=O)nc2)nc2ccc(C(F)(F)F)cc21` [Example 106, (R)-5-(N-(1-(1-Ethyl-6-(trifluoromethyl)-1H-benzo[d]imidazol-2-yl)ethyl)sulfamoyl)picolinamide], 93.3%; to `CCn1c([C@@H](C)NS(=O)(=O)c2ccc(F)nc2)nc2ccc(C(F)(F)F)cc21` [Example 107, (R)-N-(1-(1-Ethyl-6-(trifluoromethyl)-1H-benzo[d]imidazol-2-yl)ethyl)-6-fluoropyridine-3-sulfonamide], 92.5%.

Take `CCn1c([C@@H](C)NS(=O)(=O)c2ccc(C)nc2)nc2ccc(C(F)(F)F)cc21` [Example 108, (R)-N-(1-(1-Ethyl-6-(trifluoromethyl)-1H-benzo[d]imidazol-2-yl)ethyl)-6-methylpyridine-3-sulfonamide]: the inhibition at 3.5 µM is 91.8%. On the same count and under the same terms, the figure for `CCn1c([C@@H](C)NS(=O)(=O)c2ccc(OC)nc2)nc2ccc(C(F)(F)F)cc21` [Example 109, (R)-N-(1-(1-Ethyl-6-(trifluoromethyl)-1H-benzo[d]imidazol-2-yl)ethyl)-6-methoxypyridine-3-sulfonamide] is 95.6%; for `CCn1c([C@@H](C)NS(=O)(=O)c2ccc([N+](=O)[O-])cc2)nc2ccc(C(F)(F)F)cc21` [Example 110, (R)-N-(1-(1-Ethyl-6-(trifluoromethyl)-1H-benzo[d]imidazol-2-yl)ethyl)-4-nitrobenzenesulfonamide] it is 92.4%.

On to `CCn1c([C@@H](C)NS(=O)(=O)c2ccc(NC(N)=O)cc2)nc2ccc(C(F)(F)F)cc21` [Example 112, (R)-N-(1-(1-Ethyl-6-(trifluoromethyl)-1H-benzo[d]imidazol-2-yl)ethyl)-4-ureidobenzenesulfonamide], for which the “% inhibition” value is “[drawing 124] (R)-N-(1-(1-Ethyl-6- (trifluoromethyl)-1H- benzo[d]imidazol-2-yl)ethyl)- 4-ureidobenzenesulfonamide (Inactive at 3.50 μM)”. On the same count and under the same terms, the entry for `CCn1c([C@@H](C)NS(=O)(=O)c2ccc(NC(=O)N(C)C)cc2)nc2ccc(C(F)(F)F)cc21` [Example 113, (R)-4-(3,3-Dimethylureido)-N-(1-(1-ethyl-6-(trifluoromethyl)-1H-benzo[d]imidazol-2-yl)ethyl)benzenesulfonamide] is “[drawing 125] (R)-4-(3,3-Dimethylureido)- N-(1-(1-ethyl-6- (trifluoromethyl)-1H- benzo[d]imidazol-2-yl)ethyl)benzenesulfonamide (Inactive at 3.50 μM)”. Consider `CCn1c([C@@H](C)NS(=O)(=O)c2ccc(C#N)cn2)nc2ccc(C(F)(F)F)cc21` [Example 114, (R)-5-Cyano-N-(1-(1-ethyl-6-(trifluoromethyl)-1H-benzo[d]imidazol-2-yl)ethyl)pyridine-2-sulfonamide], for which the inhibition at 3.5 µM was 72%. With `CCn1c([C@@H](C)NS(=O)(=O)c2ccc(C)cc2)nc2ccc(C(F)(F)F)cc21` [Example 115, (R)-N-(1-(1-Ethyl-6-(trifluoromethyl)-1H-benzo[d]imidazol-2-yl)ethyl)-4-methylbenzenesulfonamide], the inhibition at 3.5 µM was found to be 85.3%.

As for `CCn1c([C@@H](C)NS(=O)(=O)c2ccc(CC(C)C)cc2)nc2ccc(C(F)(F)F)cc21` [Example 116, N-{(1R)-1-[1-Ethyl-6-(trifluoromethyl)-1H-benzimidazol-2-yl]ethyl}-4-isobutylbenzenesulfonamide], the inhibition at 3.5 µM is 64.1%.

The assay is the same for the next values; noted with them: at 3.55 μM.
The compound `CCn1c([C@@H](C)NS(=O)(=O)c2ccc(Cl)cc2)nc2ncc(C(F)(F)F)cc21` [Example 88, 4-Chloro-N-{(1R)-1-[1-ethyl-6-(trifluoromethyl)-1H-imidazo[4,5-b]pyridin-2-yl]ethyl}benzenesulfonamide] yielded an inhibition at 3.55 µM of 82.6%.

Still in this assay, the particulars now being: at 3.70 μM (titrated from top concentration 100 μM).
Consider `CCn1c([C@@H](C)NS(=O)(=O)c2ccc(Cl)cc2)nc2cc(-c3ccncc3)ccc21` [Example 83, 4-Chloro-N-[(1R)-1-(1-ethyl-5-pyridin-4-yl-1H-benzimidazol-2-yl)ethyl]benzenesulfonamide], for which the inhibition at 3.7 µM amounted to 16.4%. Still for that read-out and setting: the figure for `CCn1c([C@@H](C)NS(=O)(=O)c2ccc(Cl)cc2)nc2cc(C3CC3)ccc21` [Example 84, 4-Chloro-N-[(1R)-1-(5-cyclopropyl-1-ethyl-1H-benzimidazol-2-yl)ethyl]benzenesulfonamide] is 59.3%.

As to `CCn1c([C@@H](C)NS(=O)(=O)c2ccc(Cl)cc2)nc2cc(C(F)(F)F)c(Cl)cc21` [Example 85, 4-Chloro-N-{(1R)-1-[6chloro-1-ethyl-5-(trifluoromethyl)-1H-benzimidazol-2-yl]ethyl}benzenesulfonamide], the inhibition at 3.7 µM was 44.9%. `CCn1c([C@@H](C)NS(=O)(=O)c2ccc(Cl)cc2)nc2cccc(Cl)c21` [Example 86, (R)-4-Chloro-N-[1-(7-chloro-1-ethyl-1H-benzoimidazol-2-yl)ethyl]-benzenesulfonamide]: at 3.7 µM the inhibition was 51.7%.

The compound `CCn1c([C@@H](C)NS(=O)(=O)c2ccc(Cl)cc2)nc2nnc(Cl)cc21` [Example 87, 4-Chloro-N-[(1R)-1-(3-chloro-5-ethyl-5H-imidazo[4,5-c]pyridazin-6-yl)ethyl]benzenesulfonamide] returned an inhibition at 3.7 µM of 62.4%.

Compound `CCn1c([C@@H](C)NS(=O)(=O)c2ccc(Cl)cc2)nc2cc(Br)c(C(F)(F)F)cc21` [Example 93, N-{(1R)-1-[5-Bromo-1-ethyl-6-(trifluoromethyl)-1H-benzimidazol-2-yl]ethyl}-4-chlorobenzenesulfonamide] registered an inhibition at 3.7 µM of 62.3%. In turn, `CCn1c(C(C)NS(=O)(=O)c2ccc(Cl)cc2)nc2c(Cl)nccc21` (centres unmarked) [Example 94, 4-Chloro-N-[1-(4-chloro-1-ethyl-1H-imidazo[4,5-c]pyridin-2-yl)ethyl]benzenesulfonamide] yielded an inhibition at 3.7 µM of 91.6%. With `CCn1c(C(C)NS(=O)(=O)c2ccc(Cl)cc2)nc2cnc(C(F)(F)F)nc21` (centres unmarked) [Example 96, 4-chloro-N-{1-[9-ethyl-2-(trifluoromethyl)-9H-purin-8-yl]ethyl}benzenesulfonamide], testing at 3.7 µM gave an inhibition of 81.7%. The compound `CCn1c([C@@H](C)NS(=O)(=O)c2ccc(Cl)cc2)nc2cnc(Cl)cc21` [Example 97, 4-chloro-N-[(1R)-1-(6-chloro-1-ethyl-1H-imidazo[4,5-c]pyridin-2-yl)ethyl]benzenesulfonamide] had an inhibition at 3.7 µM of 88.9%. For `CCn1c(C(C)NS(=O)(=O)c2ccc(Cl)cc2)nc2ccc(C(F)(F)F)cc21` (centres unmarked) [Example 99, 4-Chloro-N-{1-[1-ethyl-6-(trifluoromethyl)-1H-benzimidazol-2-yl]ethyl}benzenesulfonamide], the inhibition at 3.7 µM was found to be 94.5%.
